The target in test [1] is T1, mu3 opiate receptor (Homo sapiens, UniProt P35372).
T1 construct: aliquots of membrane suspensions from human granulocytes and lung non-small cell carcinoma; from tissue; host or cells: human granulocytes, human monocytes, normal lung, non-small cell lung carcinoma tissue, vascular tissue
It counts as cell-based. The protocol:
The system was calibrated daily using different concentrations of the nitrosothiol donor S-nitroso-N-acetyl-DL-penicillamine (SNAP; Sigma, St. Louis, Mo.) to generate a standard curve. The concentration of NO gas in solution was measured in real-time with the DUO 18 computer data acquisition system (World Precision Instruments). Each experiment was simultaneously performed with a control (vehicle alone) to exclude experimental drift in NO release unrelated to the administration of compounds.

The target in test [2] is T1, mu3 opiate receptor. Type of test: cell-based. This is another data set of the same source.
The target in test [3] is T1, mu3 opiate receptor. In words: biochemical. Type of test: binding. How it is done:
Binding was studied in human granulocytes, normal lung, and non-small cell lung carcinoma tissue. The separate materials were washed and homogenized in 50 volumes of 0.32 M sucrose (pH 7.4) at 4° C. […] Briefly, aliquots of membrane suspensions from human granulocytes and lung non-small cell carcinoma (less 9% lymphocyte infiltrate) were incubated with non-radioactive compounds at six concentrations for 10 minutes at 22° C. and then with 40 nM of ^3H-dihydromorphine ([^3H]-DHM) for 60 minutes at 4° C. One hundred percent binding is defined as bound [^3H]-DHM in the presence of 10 μM dextrophan minus bound [^3H]-DHM in the presence of 10 μM levorphanol. The IC50 values are defined as the concentration of drug that elicits half-maximal inhibition of specific binding. The mean SEM for three experiments is given.

In test [4] the test system is estrogen surface receptor (ESR1). In words: NO release from ITA fragments and cultured arterial endothelial cells, estrogen compounds. Type of test: cell-based, human. The source says:
Internal thoracic artery (ITA) segments were obtained from patients undergoing elective coronary artery bypass grafting (CABG) for atherosclerotic coronary artery disease. Patients with chronic illnesses, such as diabetes or cancer as well as acute processes (e.g., known infections, trauma), were excluded.
Prior to measuring NO release, the cells were exposed to a concentration gradient of the various ligands.

The test system is the same in test [5]. In words: Intracellular calcium (fura-2) in human arterial endothelial cells, estrogen compounds. Type of test: cell-based. As to conditions: for effect of prior exposure on 17β-estradiol-induced [Ca^2+]i increase: tamoxifen 1 nM, ICI 182, 780 1 μM. How it is done: Human arterial endothelial cells were purchased from Cell Systems (Eugene, Oregon) and grown at 37° C., 5% CO2 in chamber slides (Nunc Int.) with CS-C medium (Cell Systems) supplemented with 10% fetal calf serum and endothelial growth factor. Intracellular calcium levels were measured by dual emission microfluorimetry using the fluorescent dye fura-2/AM. Cells were loaded with the fluorescent ion indicator as follows. […] Cells were washed twice with PBS and then test drugs were added. […] Experiments were carried out at room temperature in PBS without calcium/magnesium. Receptor antagonists, when used, were administered 2 minutes prior to the respective agonist.
Intracellular calcium levels in human arterial endothelial cells were monitored as described herein for the mu3 studies.
(In general: Calcium flux is commonly read through the fluorescence of an indicator in the cells.)

As a reminder, the IC50 is the concentration that gives 50% inhibition. What is called EC50 is the midpoint of the concentration-response curve.

SMILES strings stand for the structures. Where “and” joins values, the source holds several entries; their conditions need not be identical. Identical values can stand only once. Like-named read-outs stand apart in the source and are kept apart here.

T1 sequence (P35372 1-314 isoform P35372-14): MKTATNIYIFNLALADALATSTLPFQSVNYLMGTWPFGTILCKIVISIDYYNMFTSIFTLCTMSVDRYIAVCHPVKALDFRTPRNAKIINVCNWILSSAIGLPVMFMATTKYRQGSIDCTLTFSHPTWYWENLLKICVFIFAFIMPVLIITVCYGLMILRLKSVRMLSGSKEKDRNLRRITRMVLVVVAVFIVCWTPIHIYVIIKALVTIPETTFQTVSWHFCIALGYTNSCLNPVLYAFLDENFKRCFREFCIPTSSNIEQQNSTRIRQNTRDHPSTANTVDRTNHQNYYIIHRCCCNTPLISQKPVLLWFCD

`COC(=O)[C@@H](N)CCCNC(=N)N[N+](=O)[O-]` [L-NAME, N omega-nitro-L-arginine methyl ester]: in test [1] (human granulocytes), the “effect of pretreatment on morphine-induced NO release” value was “inhibited”.
On to `CC(C)C[C@@H](NC(=O)[C@H](Cc1ccccc1)NC(=O)CNC(=O)[C@@H](C)NC(=O)[C@@H](N)Cc1ccc(O)cc1)C(=O)O` [DADLE, (D-Ala^2, Leu^5)-enkephalin], for which, in test [2], the “stimulation of intracellular calcium level increases in endothelial cells” value is recorded as “did not stimulate”.
In the case of `CSCC[C@H](NC(=O)[C@H](Cc1ccccc1)NC(=O)CNC(=O)[C@@H](C)NC(=O)[C@@H](N)Cc1ccc(O)cc1)C(N)=O` [DAMA, (D-Ala^2, Met^5)-enkephalinamide], the IC50 is more than 1000 nM in test [3] (GRANULOCYTES membranes, 40 nM [3H]-DHM, mean ± SEM, three experiments, read-out: Displacement of [3H]-DHM IC50); more than 1000 nM in test [3] (LUNG CARCINOMA (non-small cell) membranes, 40 nM [3H]-DHM, mean ± SEM, read-out: Displacement of [3H]-DHM IC50); more than 1000 nM in test [3] (NORMAL LUNG membranes, 40 nM [3H]-DHM, mean ± SEM, read-out: Displacement of [3H]-DHM IC50). The “NO release at 4 minutes post morphine exposure” value in test [1] was found to be 5.2 ± 1.4 nM. Moreover, the “effect of pre-treatment on morphine-induced NO release” value in test [1] (1 nM peptide, vascular tissue, human monocytes, human granulocytes) is “prevented”. The “inhibition of morphine-induced NO release” value in test [1] (1 nM peptide, vascular tissue, 4 to 10 minute time points) is on record as “significantly (P<0.05) inhibited”. Further, in test [1] (vascular tissue, DAMA alone 1 nM), the “NO release at 4 minutes” value turned out to be 0.0 nM. Also, the “stimulation of intracellular calcium level increases in endothelial cells” value in test [2] (concentration range 1 pM to 1 μM) is recorded as “did not stimulate”.
As to `CC/C(=C(\c1ccccc1)c1ccc(OCCN(C)C)cc1)c1ccccc1` [Tamoxifen], in test [4], the “effect of pre-treatment on 17β-estradiol-induced NO release” value was “significantly diminished” and the “effect of pre-treatment on E2-BSA-induced NO release” value is “blocked”. Besides, the “effect of prior exposure on 17β-estradiol-induced [Ca^2+]i increase” value in test [5] was “blocked”.
For `Oc1ccc2c3c1O[C@H]1c4[nH]c5ccccc5c4C[C@@]4(O)[C@@H](C2)N(CC2CC2)CC[C@]314` [Naltrindole], in test [1], the NO release was 12.0 ± 3.4 nM and the “effect on the inhibition of morphine-induced NO release by DAMA” value was “blocked”.
Consider `C[C@]12CC[C@@H]3c4ccc(O)cc4C[C@@H](CCCCCCCCC[S+]([O-])CCCC(F)(F)C(F)(F)F)[C@H]3[C@@H]1CC[C@@H]2O` (stereo partly shown) [ICI 182, 780], for which, in test [4] (ITA fragments and cultured arterial endothelial cells, tamoxifen 1 nM, ICI 182,780 1 nM, L-NAME 100 μM, 5 minutes before agonist), the “effect of pre-treatment on 17β-estradiol-induced NO release” value is “failed to inhibit”. Moreover, in test [4] (ITA fragments and cultured arterial endothelial cells, tamoxifen, ICI 182,780 1 nM, L-NAME 100 μM, 5 minutes before agonist), the “effect of pre-treatment on E2-BSA-induced NO release” value is listed as “failed to inhibit”. The “effect of prior exposure on 17β-estradiol-induced [Ca^2+]i increase” value in test [5] was “not”.
In the case of `CN1CC[C@]23c4c5ccc(O)c4O[C@H]2[C@@H](O)CC[C@H]3[C@H]1C5` [Dihydromorphine], the IC50 in test [3] (Displacement of [3H]-DHM IC50) is 33 nM and 27 nM and 28.5 nM.
With `C[C@]12CC[C@@H]3c4ccc(O)cc4CC[C@H]3[C@@H]1CC[C@H]2O` [17α-estradiol], in test [4], the “stimulation of NO release” value is “did not stimulate”.
With `C[C@]12CC[C@@H]3c4ccc(O)cc4CC[C@H]3[C@@H]1CC[C@@H]2O` [17β-estradiol], in test [4], the “NO release at 10 pM” value is “failed to stimulate a significant increase”, the “NO release in Ca-leached endothelial cells” value is 1.8 ± 0.6 nM, the “NO release peak value” is listed as 16.1 nM and the “concentration of maximal effect on NO release” value is recorded as 1 nM. Besides, in test [4], the “peak value of NO release (non-leached comparison)” value was 16.0 ± 2.7 nM, the “response of ITA with endothelial lining scraped off” value is recorded as “non-responsive”, the “time period of NO release” value amounted to 10 min and the “time to peak of NO release” value is not above 2 min. Also, in test [5] (17β-estradiol 1 nM, 3 hour Ca-free incubation, medium changed six times), the “[Ca^2+]i after leaching of intracellular calcium stores” value is listed as 3.8±0.6. In test [5] (stated with the [Ca^2+]i results), the 50% effective concentration (EC50) is 0.5 nM.
For the compound `C[C@@H](NC(=O)[C@@H](N)Cc1ccc(O)cc1)C(=O)NCC(=O)N(C)[C@@H](Cc1ccccc1)C(=O)NCCO` [DAMGO, (Tyr-D-Ala^2, Gly-N-Me-Phe^4, Gly(ol)^5)-enkephalin], in test [1], the “effect of pre-treatment on morphine-induced NO release” value is listed as “prevented”, the “effect on NO release (compound alone)” value is listed as “no effect” and the “inhibition of morphine-induced NO release” value was “significantly (P<0.05) inhibited”. The “stimulation of endothelial [Ca^2+]i increases” value in test [2] is “did not stimulate”.
